Legend:
[1] = tested on: d-amphetamine pre-treated rats; test: Reduction of amphetamine-induced hyper-locomotion; assay type: in vivo; settings: Rattus norvegicus; rats pre-treated with d-amphetamine 1.5 mg/kg i.p.; test compound 0-100 μmol/kg s.c.; distance during last 45 minutes of one hour
Source text: The increase in activity after treatment with d-amphetamine is a standard model of hyperdopaminergia. In this model, dopaminergic neurotransmission is increased by systemic administration of d-amphetamine at a dose that is sufficiently high to produce a large increase in locomotor activity. The ability of a compound to antagonize this hyperactivity reflects anti-dopaminergic properties. Furthermore, antagonism of d-amphetamine induced hyperactivity is widely used as a standard assay of antipsychotic activity (see Psychopharmacology 4th Generation of progress Chapter 68, p 793-795).
Behavioural activity is measured using eight Digiscan activity monitors (RXYZM (16) TAO, Omnitech Electronics, Columbus, Ohio, USA), connected to an Omnitech Digiscan analyzer and an Apple Macintosh computer equipped with a digital interface board (NB DIO-24, National Instruments, USA). […]
Behavioural data from each activity monitor, representing the position (horizontal center of gravity and vertical activity) of the animal at each time, are recorded at a sampling frequency of 25 Hz and collected using a custom written LABView™ application. The data from each recording session are stored and analyzed with respect to distance traveled. […]
ED50 value for reduction of amphetamine-induced hyper-locomotion is calculated by curve fitting. […]

Arc gene expression = test: Increase of Arc gene expression (Arc mRNA, real-time PCR) in rat striatum and cortex; assay type: in vivo; settings: estimated ED50 on increase of Arc gene expression
Procedure: To investigate potential effects of compounds of the present invention on cortical and striatal NMDA receptor related synaptic signalling, Arc mRNA induction was assessed upon acute administration of a compound of the present invention. […]
Total RNA is prepared by the guanidin isothiocyanate method reported by Chomczynski & Sacchi [Chomczynski P & Sacchi N; Anal. Biochem. 1987 162 156-159]. […] The sample concentration was determined spectrophotometrically by a NanoDrop ND-1000. A quality indicator number and an integrity number of r-RNA were measured with an Experion (Bio-Rad) on random samples. […]
For real-time PCR measurements, 0.7 μl of the cDNA reaction was amplified in a 25 μl reaction mixture containing 1×PCR buffer, 0.2 mM dNTP, 3.7 mM MgCl2, 0.15 mM SYBR green, 0.4 μM of each primer, and 1U JumpStart Taq DNA polymerase. Real-time PCR was measured on CFX96 (Biorad) using the following settings for all genes, 60 s pre-incubation at 95° C., followed by 40 cycles of denaturation at 95° C. for 10 s, annealing at 56° C. for 10 s, and elongation at 72° C. for 10 s.
Initial DNA amounts were quantified by a standard curve constructed for every gene using 6 serial 4-fold dilutions of purified PCR products. […]
Arc gene amounts were normalised using the geometric mean of the amounts of the two house-keeping genes assessed (HPRT and cyclophilin A). […]

## CCCNCCOc1cc(F)cc(S(C)(=O)=O)c1 [Example 1, N-[2-(3-fluoro-5-methylsulfonyl-phenoxy)ethyl]propan-1-amine]
[1]
  ED50: 24 µmol/kg
Arc gene expression; rat (prefrontal) cortex, evaluated to be below the lowest dose
  ED50: < 11 µmol/kg
Arc gene expression; sc, rat striatum, systemic administration, 0-100 μmol/kg s.c.
  ED50: 13 µmol/kg

From patent publication US9120728B2, “Modulators of cortical dopaminergic- and NMDA-receptor-mediated glutamatergic neurotransmission” (INTEGRATIVE RESEARCH LABORATORIES SWEDEN AB, priority 2011, dated 2015)
